Test system: women
Test: Topical menthol applied to the vulva: increase of vaginal lubrication in women
Assay type: in vivo, human
Conditions: applied to the vulva (including the clitoris)
From the text: Abnormal sperm quality in combination with inadequate vaginal lubrication can cause infertility. The menthol-stimulated vaginal plasma transudate 30 that is generated by use of the inventive method compensates for lubrication insufficiency that may be present in the female sexual partner of the infertile male. […] Since most infertility is a combination of female and male factors, the production of this vaginal transudate 30 can aid conception rates of both infertile males and females. […] Therefore the sperm, even if they somehow are able to be capacitated, have little or no protective and nourishing substrate in which they can swim up through the external os 24 and into the cervical canal 21. The odds of fertilization are thus extremely low.

Q: What does the source list for CC1CCC(C(C)C)C(O)C1 (centres unmarked) [menthol]?
A: women in whom lubrication is increased (all women): 80%; women in whom lubrication is increased (women over 35): 90%
